Data on two molecules can be found in patent US8486719B2, “Multiplex assay methods and compositions” (PerkinElmer BioSignal, Inc., priority 2009, dated 2013).

Test [1] deals with T1, human bombesin (hBombesin) 3 (Homo sapiens, UniProt P32247).
T1 construct: expressed in transfected cells; host or cells: Balb3T3
T1 sequence (P32247 1-399): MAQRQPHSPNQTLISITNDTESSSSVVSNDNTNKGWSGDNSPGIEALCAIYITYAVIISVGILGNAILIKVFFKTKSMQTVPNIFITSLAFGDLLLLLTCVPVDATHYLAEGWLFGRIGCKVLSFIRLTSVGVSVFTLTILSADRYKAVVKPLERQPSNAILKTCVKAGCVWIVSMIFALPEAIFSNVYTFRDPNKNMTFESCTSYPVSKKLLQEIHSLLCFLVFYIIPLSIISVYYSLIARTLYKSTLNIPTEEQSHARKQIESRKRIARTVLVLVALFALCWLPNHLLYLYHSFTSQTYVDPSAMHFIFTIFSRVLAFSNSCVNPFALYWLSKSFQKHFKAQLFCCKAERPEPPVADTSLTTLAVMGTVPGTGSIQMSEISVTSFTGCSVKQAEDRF
As to the kind of experiment: Surface expression of FLAG-tagged bombesin receptor on phthalocyanine-loaded cells, anti-FLAG acceptor beads. The conditions noted are these: 10 nM or 300 nM agonist, 1 hour at 37° C., Balb3T3 hBombesin 3 FLAG cells. It is filed as cell-based.
Procedure: Bombesin receptor is a well-characterized cell surface receptor which is known to internalize and decrease in cell surface expression following agonist (bombesin) binding. Balb3T3 cells expressing human bombesin (hBombesin) 3 with a FLAG tag and Balb3T3 cells expressing human bombesin 3 without a FLAG tag were used to monitor the expression and binding activity of the bombesin receptor, GPCR in these cells.
About 10 nM or 300 nM of the Bombesin peptide agonist, (6-14)[D-tyr6, b-Ala11, Phe13, Nle14] was incubated with Balb3T3 hBombesin 3 FLAG cells and Balb3T3 hBombesin WT cells for 1 hour at 37° C. after which cells were harvested, labeled with 10 μM to 30 μM Al^3+-phthalocyanine. The phthalocyanine-loaded cells are washed several times in MES or HEPES buffer following the incubation to remove excess phthalocyanine. About 20 to 40 of the anti-FLAG antibody-conjugated acceptor beads including a thioxene and europium chelate emission system are added to the assay mix including MES or HEPES buffer and the phthalocyanine-loaded cells and incubated for 1 hour at room temperature. […] The FLAG-tagged hBombesin was detected with anti-FLAG Acceptor beads in the assay.

The target in the next test is MEK1 (Homo sapiens, UniProt Q02750). As to the kind of experiment: One well multiplexed assay, 572 nm signal: ERK2 phosphorylation by MEK1 with increasing ATP. The conditions noted are these: signal detected at 572 nm, FIG. 4; read-out: EC50 for ATP-induced ERK2 phosphorylation. Type of test: biochemical. From the text:
(§1) The kinase MEK1 is expressed with a histidine tag (6×His) at either the C- or N-terminus.
(§2) An antibody which recognizes MEK1 phosphorylated ERK2 (mouse anti-pTpY ERK1/2) is associated with acceptor beads containing thioxene, 9,10-bis(phenylethynyl)anthracene and rubrene via anti-mouse IgG antibody binding. The antibody used, p-Tyr-100, is a generic highly promiscuous anti-phosphotyrosine antibody which recognizes both mono (pY) and dual-(pTpY) phosphorylated forms of ERK2.
(§3) Increasing concentrations of ATP were used to promote the phosphorylation of ERK2 by MEK1.

In another test the target is MEK1/ERK2 (Homo sapiens, UniProt Q02750). As to the kind of experiment: One well multiplexed assay, 615 nm signal: interaction between MEK1 and ERK2 with increasing ATP. Type of test: binding. The conditions noted are these: signal detected at 615 nm, FIG. 4; read-out: EC50 for ATP-induced MEK1/ERK2 dissociation.
MEK1/ERK2, sequence (Q02750 whole entry, species assumed): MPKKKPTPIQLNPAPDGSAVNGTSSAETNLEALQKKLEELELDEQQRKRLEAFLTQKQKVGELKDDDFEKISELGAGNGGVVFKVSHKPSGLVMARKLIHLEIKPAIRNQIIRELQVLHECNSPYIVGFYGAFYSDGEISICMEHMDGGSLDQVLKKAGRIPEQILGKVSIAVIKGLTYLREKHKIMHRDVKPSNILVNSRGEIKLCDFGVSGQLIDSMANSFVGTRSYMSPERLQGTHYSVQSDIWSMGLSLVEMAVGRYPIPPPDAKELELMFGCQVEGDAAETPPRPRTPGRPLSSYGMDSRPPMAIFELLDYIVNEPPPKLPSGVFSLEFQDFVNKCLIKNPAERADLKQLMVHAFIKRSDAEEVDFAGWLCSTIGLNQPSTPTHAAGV
Text: as §1, §2, §3

MEK1, sequence (Q02750 whole entry, species assumed): as above

Take (6-14)[D-tyr6, b-Ala11, Phe13, Nle14]: the “surface expression of the bombesin receptor following agonist stimulation” value in test [1] is listed as “Changes in surface expression of the bombesin receptor following agonist stimulation are detected”.

As to `Nc1ncnc2c1ncn2[C@@H]1O[C@H](COP(=O)(O)OP(=O)(O)OP(=O)(O)O)[C@@H](O)[C@H]1O` [ATP], the EC50 on MEK1 and at MEK1/ERK2 was about 1000 nM each time.
